The values that follow come from patent EP4583874B1, “MULTITARGET NUCLEAR RECEPTOR LIGANDS BASED ON 2-(4-(QUINOLIN-2-YLOXY)PHENOXY)PROPANOIC ACID AND 2-(4-(QUINOXALIN-2-YLOXY)PHENOXY)PROPANOIC ACID FOR THE TREATMENT OF METABOLIC AND LIVER DISEASES” (CHARLES UNIVERSITY, FACULTY OF PHARMACY IN HRADEC KRALOVE, priority 2022, dated 2024).

One series concerns the target T1, human FXR (Homo sapiens, UniProt Q96RI1).
T1 construct: expressed in transfected cells; host or cells: HepG2
T1 sequence (Q96RI1 1-486): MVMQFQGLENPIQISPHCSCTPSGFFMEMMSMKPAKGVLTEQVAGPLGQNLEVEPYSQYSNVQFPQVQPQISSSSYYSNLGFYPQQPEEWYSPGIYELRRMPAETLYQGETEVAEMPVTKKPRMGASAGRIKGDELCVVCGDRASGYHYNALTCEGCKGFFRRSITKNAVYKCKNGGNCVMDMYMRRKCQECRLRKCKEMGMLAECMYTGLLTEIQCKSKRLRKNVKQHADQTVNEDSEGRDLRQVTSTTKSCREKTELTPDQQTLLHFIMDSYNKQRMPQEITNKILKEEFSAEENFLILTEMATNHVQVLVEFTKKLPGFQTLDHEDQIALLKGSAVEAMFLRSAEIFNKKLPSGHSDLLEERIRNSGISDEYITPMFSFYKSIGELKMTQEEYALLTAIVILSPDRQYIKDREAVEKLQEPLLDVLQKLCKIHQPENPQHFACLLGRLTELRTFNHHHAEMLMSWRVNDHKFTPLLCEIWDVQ
In words: FXR responsive luciferase reporter gene assay (FXRE-luc + human FXR expression construct) in HepG2 cells. Format: cell-based. The settings on record: HepG2, 24 h. The text has this: (§1) In HepG2 cells, luciferase gene reporter assays have been performed with the transiently transfected reporter gene luciferase construct with the UAS yeast binding site interacting with GAL4 protein (pGL5-UAS 9x, Promega). DNA constructs encoding human LBD domains of human PPARα, PPARγ, of LXRα (pGAL4-PPARα, pGAL4-PPARγ, pGAL4-LXRα) have been cotransfected with the reporter construct. For FXR, FXRE-luc construct with FXR response elements upstream of Firefly luciferase has been used together with an expression construct for human FXR for HepG2 cells transfection. HepG2 cells were then treated with compounds of the invention for 24 h.

A further series addresses T2, human LXRα (Homo sapiens, UniProt Q13133).
T2 construct: DNA constructs encoding human LBD domains of human PPARα, PPARγ, of LXRα (pGAL4-PPARα, pGAL4-PPARγ, pGAL4-LXRα); expressed in transfected cells; host or cells: HepG2
T2 sequence (Q13133 209-447 limits assumed): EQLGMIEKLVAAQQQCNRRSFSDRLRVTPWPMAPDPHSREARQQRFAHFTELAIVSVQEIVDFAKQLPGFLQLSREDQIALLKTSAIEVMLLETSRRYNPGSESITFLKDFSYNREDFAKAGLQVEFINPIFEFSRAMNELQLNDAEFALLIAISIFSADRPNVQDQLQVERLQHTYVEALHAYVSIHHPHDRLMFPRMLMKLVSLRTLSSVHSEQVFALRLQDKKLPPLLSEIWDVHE
In words: LXRα luciferase reporter gene assay, inhibition of activation by GW3965 (pGAL4-LXRα / pGL5-UAS 9x) in HepG2 cells. In kind it is cell-based. The conditions noted are these: HepG2, 24 h; read-out: LXRα antagonism. The procedure: Bezafibrate, GW7647 and WY14643 are known PPARα ligands. […] GW3965 is known high-affinity LXRα ligand.
Inverse agonistic/antagonistic activities of tested compounds to LXRα receptor activated by the LXRα agonist GW3965(10 µM). […] Negative value indicates inverse agonism.
as §1

Another series relates to C57BL/6J mice. In words: Pilot study in mice, liver mRNA expression by RT-qPCR. In kind it is in vivo. The settings on record: 3x 30 mg/kg p.o. gavage, liver 24 h after last application, vs vehicle. How it is done: Compounds 35 and 37 have been applied three times after 24 h (3x 30 mg/kg) via p.o. gavage to wild-type C57BL/6J mice. After 24 h from the last application, mice were sacrificed, and live samples collected on dry ice for total RNA isolation. RT-qPCR experiments have been performed with TaqMan probes and expression has been quantified using a reference gene (beta-actin and Gapdh) and delta-delta method. Data represents fold up or downregulation in mRNA expression for tested genes related to the expression in vehicle-treated control animals. * - statistically significant (p<0.05) up- or down- regulation in animals treated with tested compounds (n=4).
In the pilot study, compounds of the invention 37 and 35 were applied by per os probe (gavage) to male mice of age 15 weeks (n=4 per group) three times (3 x 30 mg/kg b.w.) in 1%PEG300/methylcellulose solution (compounds of EXAMPLE 37or 35). Livers were sampled 24 hours after application into liquid nitrogen for total RNA insolation and for qRT-PCR analysis (Quantstudio 7 HT Fast Real-Time PCR System).
Expressions of NR target genes mRNAs in livers of mice or in 3D cultured (spheroids) primary human hepatocytes have been performed using TaqMan probes-based RT-qPCR after isolation of total RNA by Trizol® (ThermoFischer Scientific) reagent and reverse transcription synthesis of cDNA in Quant Studio cycler. Real-time qPCR TaqMan probes have been purchased prom ThermoFisher scientific (Cat. No. 4351372 and 433118). Delta-delta method and Gapdh or TATA-box binding protein (TBP) housekeeping genes were used for relative quantification. Data are expressed as fold up-/down-regulation compared to vehicle-treated samples/mice.

Series [1] relates to C57BL/6J mice fed with high fat diet. Kind of series: Proof-of-concept study in mice fed with high fat diet: plasma biochemistry, weights, IPGTT. In kind it is in vivo. The conditions noted are these: HFD mice; for glucose plasma levels in Intraperitoneal Glucose Tolerance Test (IPGTT): IPGTT 1.5 g/kg BW. The text has this: Control group received a chow diet.
In the proof-of-concept study, after a 1-week of adaptation period, male C57BL/6J mice were randomly divided into three groups: (i) mice fed a chow diet (control; PicoLab RD 20, LabDiet) and tap water (n=4) or (ii) mice fed a high-fat diet (HFD) consisting of Western diet (AIN-76A WD, TestDiet, 20 % fat) and glucose (18.1 g/L) with fructose (24 g/L) provided in water. At week 21 on HFD diet, mice were randomly assigned into two experimental groups (10 and 11 mice per group): (ii) group on HFD, (iii) group on HFD administered with 10 mg/kg compound of EXAMPLE 37 as a salt (hydrochloride) (HFD +comp. 37). Compound of EXAMPLE 37or vehicle (1% methylcellulose) were administered once daily by oral gavage for another 3 weeks together with diets.
The i.p. Glucose tolerance test has been performed seven days before the termination of the study. For the purpose, […] of glucose dissolved in saline has been applied and blood was sampled in four intervals up to 120 minutes form tail vein. A standard glucometer was used to measure glycemia.
For biochemistry analyses, plasma liver enzyme activities were analyzed in plasma by a commercial Preventive Care Profile Plus test with Vetscan 2 device (Abaxis). Level of cholesterol and triglycerides in plasma and liver were measured by commercial kits (Erba Lachema s.r.o., Brno, Czech Republic).
Animals were sacrificed by anesthesia overdose. Plasma samples were obtained from the whole blood by centrifugation at 2,000 × g for 5 min at 4°C. The liver, gallbladder and abdominal fat were excised, weighted and immediately frozen in liquid nitrogen. All samples were stored at -80°C until analysis.

Where [2] appears, read: 10 mg/kg p.o. daily for 3 weeks (hydrochloride), vs HFD group.

Take `C[C@@H](Oc1ccc(Oc2ccc3c(Cl)cccc3n2)cc1)C(=O)O` [compound 37, (R)-2-(4-((5-Chloroquinolin-2-yl)oxy)phenoxy)propanoic acid]: at human FXR, the Emax at 10 µM stood at 77%. In addition, the inhibition at 10 µM on human LXRα came to 39%. Besides, in the series with C57BL/6J mice, the “Cyp7a1 expression in the mouse liver” value was “down-regulates”, the “Fasn gene expression in the mouse liver” value is “down-regulate”, the “Pck1 gene expression in the mouse liver” value was “down-regulate” and the “cholesterol efflux transporters Abcg5/8 expression in the mouse liver” value is recorded as “down-regulates”. The “key protein involved in fatty acid (beta) oxidation, mRNA expression in the mouse liver” value in the series on C57BL/6J mice was “up-regulate”. Moreover, in series [1] (setting [2]), the ALP plasma levels entry was “increases”, the ALT plasma levels entry is “improves”, the AST plasma levels result is given as “improves” and the “plasma triglyceride (TG) levels” value was “significantly decreases”. Moreover, in series [1] (10 mg/kg p.o. daily for 3 weeks, effect not statistically significant), the “abdominal fat weight (AFW)” value is “decreased”. Also, in series [1] (10 mg/kg p.o. daily, after three weeks of treatment), the “body weight (BW)” value is “significantly decreased”. Also, the “glucose plasma levels in Intraperitoneal Glucose Tolerance Test (IPGTT)” value in series [1] (after 15 minutes, 10 mg/kg p.o. daily) is “significantly decreased”. Further, in series [1] (other intervals, 10 mg/kg p.o. daily), the “glucose plasma levels in Intraperitoneal Glucose Tolerance Test (IPGTT)” value is reported as “the decrease was not statistically significant”.
